Patent US4016042A, “Substrate for the quantitative determination of enzymes” (Pentapharm A.G., priority 1974, dated 1977)
Where a name gives a salt, the structure may show the parent alone. Residues, ends and D or L forms follow the SMILES beside them. *: point of attachment. Hydrocinnamoyl = O=C(CCc1ccccc1)*; pNA = O=[N+]([O-])c1ccc(N*)cc1; Bz = O=C(c1ccccc1)*

Assays:
Format in all cases: biochemical
plasmin [1] = molecular target: T1, plasmin (Homo sapiens, UniProt P00747); assay: Activity of human plasmin measured with the substrates at constant substrate and enzyme concentrations; settings: split product
Protocol: (§1) HCl, were used for the quantitative determination of various enzymes in blood plasma. The determination was carried out by taking advantage of the fact that the split product NH2 -R^2 formed by enzymatic hydrolysis of the substrate has a UV spectrum which differs from that of the substrate and is shifted toward higher wave lengths. Thus, N^α-Bz-Pro-Phe-Arg-pNA^.
(§2) The degree of the enzymatic hydrolysis of the substrate, which is proportional to the quantity of p-nitroaniline formed, can be easily determined by spectrophotometric measurement at 405 nm. […] The conditions are practically the same for the other substrates carrying a p-nitroanilino group as a chromogenic group. The spectrophotometric measurement was, therefore, carried out in all cases at 405 nm.

plasma kallikrein [2] = molecular target: T2, plasma kallikrein (Homo sapiens, UniProt P03952); assay: Activity of plasma kallikrein measured with the substrates at constant substrate and enzyme concentrations; settings: split product
Protocol: as §1, §2

thrombin = thrombin (Homo sapiens, UniProt P00734); assay: Km and vmax determination with substrate (Lineweaver-Burk), thrombin; settings: NIH units per 1 substrate unit
Protocol: (§3) As is evident from equation (2) constants Km and k3 determine the activity of the enzyme substrate for a given enzyme. For determining these constants the following procedure is followed:
(§4) The enzyme and the substrate are mixed in a buffer solution, and the reaction is followed spectrophotometrically for 2 to 30 minutes. The concentration of substrate [S] is varied, whereas the enzyme concentration [E] is kept constant. If the extinction (OD) (= optical density) is plotted in a co-ordinate system as a function of time, a curve is obtained the tangent of which (difference in extinction per minute, Δ OD/minute, from which the quantity in μmoles of pNA/min (v) can be calculated) at time zero corresponds to the ideal course of the hydrolysis. By means of this tangent the initial rate of the hydrolysis can be determined.
(§5) If 1/v is plotted against 1/[S], a Lineweaver-Burk diagram (cf. "Kurzes Lehrbuch der Biochemie" by P. KARSON, Georg Thieme-Verlag, Stuttgart, 1967, p. 70) is obtained from which vmax and Km can be determined graphically.
(§6) Km and k3 = vmax /E were determined with N^α-Bz-Pro-Phe-Arg-pNA^. HCl (i.e. the substrate prepared according to Example 1) for plasma kallikrein, trypsin, plasmin and thrombin.

[3] = molecular target: T3, prothrombin activator from venom of the snake Echis carinatus (Echis carinatus, UniProt Q90495); assay: Activity of prothrombin activator measured with substrates at a constant substrate concentration
T3 sequence (Q90495 191-616): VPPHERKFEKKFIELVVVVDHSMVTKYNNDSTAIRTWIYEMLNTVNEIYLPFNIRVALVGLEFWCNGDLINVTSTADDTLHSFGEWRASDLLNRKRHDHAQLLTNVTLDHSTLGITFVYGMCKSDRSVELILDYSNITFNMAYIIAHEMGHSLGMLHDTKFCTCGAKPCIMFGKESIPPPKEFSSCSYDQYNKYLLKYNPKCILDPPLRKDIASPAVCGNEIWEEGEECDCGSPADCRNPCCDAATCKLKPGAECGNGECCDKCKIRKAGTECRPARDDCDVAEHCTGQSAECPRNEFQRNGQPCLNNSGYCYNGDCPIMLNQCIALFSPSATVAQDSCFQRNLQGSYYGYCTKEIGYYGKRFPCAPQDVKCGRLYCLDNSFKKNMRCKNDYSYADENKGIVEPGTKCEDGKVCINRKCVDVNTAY
From the text: (§7) The degree of the enzymatic hydrolysis of the substrate, which is proportional to the quantity of p-nitroaniline formed, can be easily determined by spectrophotometric measurement at 405 nm. The presence of an excess of substrate exerts no disturbing effect on the measurement at 405 nm. The conditions are practically the same for the other substrates carrying a p-nitroanilino group as a chromogenic group. The spectrophotometric measurement was, therefore, carried out in all cases at 405 nm.
(§8) Activity of papain and prothrombin activator, measured by means
(§9) Quantity in nm of p-nitroaniline (pNA) re-
(§10) leased within 1 minute by 0.1 milli-Anson
(§11) unit^3) of papain and 10 μg of a pure fraction
of the prothrombin activator from venom of
the snake Echis carinatus
^2) The prothrombin activator is a serine-protease which was isolated
from the venom of the snake Echis carinatus.

trypsin = molecular target: T4, trypsin (Bos taurus, UniProt P00760); assay: Km and vmax determination with substrate (Lineweaver-Burk), trypsin; settings: NF units per 1 substrate unit
T4 sequence (P00760 24-246): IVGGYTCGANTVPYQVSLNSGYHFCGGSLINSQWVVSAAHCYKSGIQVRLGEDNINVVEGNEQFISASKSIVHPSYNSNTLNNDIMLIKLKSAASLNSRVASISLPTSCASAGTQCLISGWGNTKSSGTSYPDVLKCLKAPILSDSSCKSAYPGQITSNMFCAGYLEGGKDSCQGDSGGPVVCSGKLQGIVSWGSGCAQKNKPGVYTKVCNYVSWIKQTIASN
Protocol: as §3, §4, §5, §6

plasma kallikrein [4] = molecular target: T2, plasma kallikrein; assay: Km and vmax determination with substrate (Lineweaver-Burk), plasma kallikrein; settings: common units per 1 substrate unit
Protocol: as §3, §4, §5, §6

plasmin [5] = molecular target: T1, plasmin; assay: Km and vmax determination with substrate (Lineweaver-Burk), plasmin; settings: casein units per 1 substrate unit
Protocol: as §3, §4, §5, §6

papain = molecular target: T5, papain (Carica papaya, UniProt P00784); assay: Activity of papain measured with substrates at a constant substrate concentration
T5 construct: from tissue; host or cells: latex of the Carica papaya fruit
T5 sequence (P00784 134-345): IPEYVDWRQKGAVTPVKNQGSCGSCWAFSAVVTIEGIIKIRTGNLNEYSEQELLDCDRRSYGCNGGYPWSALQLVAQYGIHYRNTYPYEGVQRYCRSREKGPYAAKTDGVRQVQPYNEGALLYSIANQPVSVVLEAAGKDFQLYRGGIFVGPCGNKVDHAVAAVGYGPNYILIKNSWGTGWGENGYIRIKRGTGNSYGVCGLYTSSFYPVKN
From the text: as §7, §8, §9, §10, §11
^1) Papain is a cysteine-protease isolated from the latex of the gree
^3) One Anson unit is the enzyme quantity which releases 1 mmole of
folin-positive amino acids (calculated as tyrosine) in 1 minute (cf. Art.

T2 sequence (P03952 391-638 limits assumed, species assumed): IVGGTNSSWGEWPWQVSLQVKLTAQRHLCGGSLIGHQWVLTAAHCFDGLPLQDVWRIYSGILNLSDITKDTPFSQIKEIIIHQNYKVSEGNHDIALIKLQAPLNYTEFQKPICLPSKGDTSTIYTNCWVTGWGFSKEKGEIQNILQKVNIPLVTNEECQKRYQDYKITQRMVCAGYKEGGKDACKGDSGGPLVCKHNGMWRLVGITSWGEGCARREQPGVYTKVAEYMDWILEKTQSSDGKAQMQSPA
T2 sequence (P03952 20-390 partner limits assumed, species assumed): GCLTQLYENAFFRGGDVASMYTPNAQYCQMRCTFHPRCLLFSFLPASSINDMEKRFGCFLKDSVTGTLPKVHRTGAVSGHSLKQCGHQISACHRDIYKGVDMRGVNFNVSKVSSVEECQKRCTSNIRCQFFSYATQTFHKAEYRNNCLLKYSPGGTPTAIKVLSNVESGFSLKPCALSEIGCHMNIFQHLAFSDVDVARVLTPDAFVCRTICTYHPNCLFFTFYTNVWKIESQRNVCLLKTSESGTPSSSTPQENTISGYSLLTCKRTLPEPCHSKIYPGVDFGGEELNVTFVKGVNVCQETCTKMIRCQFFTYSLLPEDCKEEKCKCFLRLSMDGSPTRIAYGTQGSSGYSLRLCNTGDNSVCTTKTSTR
T1 sequence (P00747 581-810 limits assumed): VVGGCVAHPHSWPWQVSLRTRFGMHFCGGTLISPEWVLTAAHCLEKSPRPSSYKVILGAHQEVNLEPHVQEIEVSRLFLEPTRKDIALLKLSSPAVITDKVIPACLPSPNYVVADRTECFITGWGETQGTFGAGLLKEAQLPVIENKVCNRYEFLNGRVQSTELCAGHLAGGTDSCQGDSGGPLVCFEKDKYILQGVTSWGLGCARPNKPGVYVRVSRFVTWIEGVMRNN
T1 sequence (P00747 97-580 partner limits assumed): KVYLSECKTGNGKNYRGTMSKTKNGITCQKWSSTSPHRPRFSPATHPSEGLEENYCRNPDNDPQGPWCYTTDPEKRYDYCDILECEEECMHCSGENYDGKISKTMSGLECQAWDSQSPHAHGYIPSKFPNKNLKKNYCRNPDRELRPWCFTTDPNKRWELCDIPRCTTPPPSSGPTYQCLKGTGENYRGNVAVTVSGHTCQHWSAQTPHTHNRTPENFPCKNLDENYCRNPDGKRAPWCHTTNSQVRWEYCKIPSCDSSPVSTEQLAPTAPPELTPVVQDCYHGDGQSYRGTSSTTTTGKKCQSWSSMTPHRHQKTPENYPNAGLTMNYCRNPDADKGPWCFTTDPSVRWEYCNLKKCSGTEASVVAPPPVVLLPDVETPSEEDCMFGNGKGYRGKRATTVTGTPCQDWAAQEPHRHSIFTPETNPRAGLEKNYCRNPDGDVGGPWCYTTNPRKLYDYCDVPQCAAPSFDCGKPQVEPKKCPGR

Structure (SMILES) | Quantity of p-nitroaniline (pNA), β-naphthylamine (2-NA) or 4-methoxy-β-naphthylamine (4-MeO-2-NA) released within 1 minute by one C unit of human plasmin (plasmin [1]) | Quantity of p-nitroaniline (pNA), β-naphthylamine (2-NA) or 4-methoxy-β-naphthylamine (4-MeO-2-NA) released within 1 minute by 1 BAEE unit of plasma kallikrein (plasma kallikrein [2]) | relation between substrate units and common units (1 U = x) (thrombin) | Quantity of p-nitroaniline (pNA) released within 1 minute by 10 μg of a pure fraction of the prothrombin activator from venom of Echis carinatus [3] | relation between substrate units and common units (1 U = x) (trypsin) | relation between substrate units and common units (1 U = x) (plasma kallikrein [4]) | relation between substrate units and common units (1 U = x) (plasmin [5]) | Quantity of p-nitroaniline (pNA) released within 1 minute by 0.1 milli-Anson unit of papain (papain)
N=C(N)NCCC[C@H](NC(=O)[C@H](Cc1ccccc1)NC(=O)[C@@H]1CCCN1C(=O)c1ccccc1)C(=O)Nc1ccc([N+](=O)[O-])cc1 [Substrate I, N^α-Bz-Pro-Phe-Arg-pNA^. HCl] (Bz-Pro-Phe-Arg-pNA) | 152.0 nm | 135.5 nm | 117600 NIH | 13.1 nm | 12000 NF | 4.8 BAEE U | 518 C U | –
N=C(N)NCCC[C@H](NC(=O)[C@H](Cc1ccccc1)NC(=O)[C@@H]1CCCN1C(=O)CCc1ccccc1)C(=O)Nc1ccc([N+](=O)[O-])cc1 [Substrate VII, N^α -3-Phenyl-propionyl-Pro-Phe-Arg-pNA.HCl] (Hydrocinnamoyl-Pro-Phe-Arg-pNA) | 144.0 nm | 256.0 nm | – | – | – | – | – | 24.9 nm
